pEC50: −log10 of the molar value.
Molecular target: T1, hNPRA (Homo sapiens, UniProt P16066)
T1 construct: expressed in transfected cells
T1 sequence (P16066 33-1061): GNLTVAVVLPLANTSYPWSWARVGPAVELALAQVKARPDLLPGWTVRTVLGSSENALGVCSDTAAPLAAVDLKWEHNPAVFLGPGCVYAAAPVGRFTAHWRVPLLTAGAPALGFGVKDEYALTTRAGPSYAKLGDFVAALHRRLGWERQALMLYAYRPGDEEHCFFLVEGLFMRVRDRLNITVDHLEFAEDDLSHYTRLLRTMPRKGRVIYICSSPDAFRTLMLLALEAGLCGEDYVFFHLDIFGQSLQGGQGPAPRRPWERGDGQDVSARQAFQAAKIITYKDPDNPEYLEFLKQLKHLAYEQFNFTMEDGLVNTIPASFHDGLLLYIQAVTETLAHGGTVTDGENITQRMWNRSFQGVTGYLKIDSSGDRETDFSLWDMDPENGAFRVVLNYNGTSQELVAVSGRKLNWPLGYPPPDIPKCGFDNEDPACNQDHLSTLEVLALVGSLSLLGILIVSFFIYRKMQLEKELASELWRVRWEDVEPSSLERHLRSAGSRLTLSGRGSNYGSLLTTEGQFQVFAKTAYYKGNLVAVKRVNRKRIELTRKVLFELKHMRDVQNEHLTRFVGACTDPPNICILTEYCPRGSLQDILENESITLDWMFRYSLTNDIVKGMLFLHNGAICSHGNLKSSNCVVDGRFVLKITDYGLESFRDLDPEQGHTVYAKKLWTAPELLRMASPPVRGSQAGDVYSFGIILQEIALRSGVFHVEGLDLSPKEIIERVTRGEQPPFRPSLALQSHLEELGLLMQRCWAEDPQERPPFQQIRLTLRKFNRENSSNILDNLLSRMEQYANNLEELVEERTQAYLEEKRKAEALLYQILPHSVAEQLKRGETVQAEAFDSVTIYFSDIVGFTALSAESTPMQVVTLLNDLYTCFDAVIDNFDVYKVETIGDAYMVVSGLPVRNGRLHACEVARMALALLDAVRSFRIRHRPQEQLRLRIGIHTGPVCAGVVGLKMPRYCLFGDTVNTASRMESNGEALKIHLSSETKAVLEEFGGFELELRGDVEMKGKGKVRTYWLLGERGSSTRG
Test: NPRA Functional Cell Assay (cGMP HTRF, NPRA HEK JumpIn stable cells)
Type: cell-based
Settings: cGMP production, 1 hour at 37° C., 10-point dose response
Method in brief: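 cGMP HTRF read-out after 1 hour compound treatment at 37° C. of human NPRA-expressing HEK JumpIn cells, 1500 cells/well, in buffer with phosphodiesterase inhibitors IBMX and RO20 (100 uM each). Signal converted to [cGMP] by calibration curve; EC50s fitted by 4-parameter logistic; 50 nM h-ANP as positive response.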

pEC50 | Compound
5.70 | CC(C)(C)[C@H]1CCc2nc3sc(C(=O)N[C@H](CCN4CCCCC4)c4ccc(-c5cncnc5)cc4)cc3cc2C1 (racemic) [Example 7, rac-(6S)-6-tert-butyl-N-[rac-(1R)-3-(1-piperidyl)-1-(4-pyrimidin-5-ylphenyl)propyl]-5,6,7,8-tetrahydrothieno[2,3-b]quinoline-2-carboxamide]
6.10 | CC(C)(C)[C@H]1CCc2nc3sc(C(=O)N[C@H](CCN4CCCC(O)C4)c4ccc(-c5ccc(=O)[nH]c5)cc4)cc3cc2C1 (mixture of isomers) [Example 55, rac-(6S)-6-tert-butyl-N-[rac-(1R)-3-(3-hydroxypiperidin-1-ium-1-yl)-1-[4-(6-oxo-1H-pyridin-3-yl)phenyl]propyl]-5,6,7,8-tetrahydrothieno[2,3-b]quinoline-2-carboxamide;formate]
6.11 | CC(C)(C)[C@H]1CCc2nc3sc(C(=O)N[C@H](CCN4CCCCC4)c4ccc(-c5cn[nH]c5)cc4)cc3cc2C1 (racemic) [Example 5, rac-(6S)-6-tert-butyl-N-[rac-(1R)-3-(1-piperidy])-1-[4-(1H-pyrazol-4-yl)phenyl]propyl]-5,6,7,8-tetrahydrothieno[2,3-b]quinoline-2-carboxamide]
6.09 | CC(C)(C)[C@H]1CCc2nc3sc(C(=O)N[C@H](CCN4CCCC(C(=O)O)C4)c4ccc(-c5ccc(=O)[nH]c5)cc4)cc3cc2C1 (mixture of isomers) [Example 56, 1-[rac-(3R)-3-[4-(6-oxo-1H-pyridin-3-yl)phenyl]-3-[[rac-(6S)-6-tert-butyl-5,6,7,8-tetrahydrothieno[2,3-b]quinoline-2-carbonyl]amino]propyl]piper idin-1-ium-3-carboxylic acid;formate]
6.63 | CC(C)(C)[C@H]1CCc2nc3sc(C(=O)N[C@H](CCN4CCCCC4)c4ccc(-c5ccc(O)nc5)cc4)cc3cc2C1 (racemic) [Example 1, ammonium;5-[4-[rac-(1R)-3-(1-piperidyl)-1-[[rac-(6S)-6-tert-butyl-5,6,7,8-tetrahydrothieno[2,3-b]quinoline-2-carbonyl]amino]propyl]phenyl]yridine-2-olate]
6.24 | CC(C)(C)[C@H]1CCc2nc3sc(C(=O)N[C@H](CCN[C@@H]4C[C@@H](O)[C@@H](O)C4)c4ccc(-c5ccc(=O)[nH]c5)cc4)cc3cc2C1 (racemic) [Example 37, [rac-(3R,4S)-3,4-dihydroxycyclopentyl]-[rac-(3R)-3-[4-(6-oxo-1H-pyridin-3-yl)phenyl]-3-[[rac-(6S)-6-tert-butyl-5,6,7,8-tetrahydrothieno[2,3-b]quinoline-2-carbonyl]amino]propyl] ammonium;formate]

Continued, compound first:

Compound | pEC50
COC(=O)C1CN(C(=O)c2cccc([C@@H](CCN3CCC(O)CC3)NC(=O)c3nc4cc5c(nc4s3)CC[C@H](C(C)(C)C)C5)c2)CCO1 (mixture of isomers) [Example 160, methyl 4-[3-[rac-(1R)-3-(4-hydroxy-1-piperidyl)-1-[[rac-(7S)-7-tert-butyl-5,6,7,8-tetrahydrothiazolo[5,4-b]quinoline-2-carbonyl]amino]propyl]benzoyl]morpholine-2-carboxylate] | 5.92
CN1CC(NC(=O)c2cccc([C@@H](CCNCC(=O)O)NC(=O)c3nc4cc5c(nc4s3)CC[C@H](C(C)(C)C)C5)c2)C1 (racemic) [Example 115, carboxymethyl-[rac-(3R)-3-[3-[(1-methylazetidin-3-yl)carbamoyl]phenyl]-3-[rac-(7S)-7-tert-butyl-5,6,7,8-tetrahydrothiazolo[5,4-b]quinoline-2-carbonyl]amino]propyl]ammonium; 2,2,2-trifluoroacetate] | 5.85
CN(C)CC[C@@H](NC(=O)c1nc2cc3c(nc2s1)CC[C@H](C(C)(C)C)C3)c1cccc(C(=O)NCCN)c1 (racemic) [Example 92, rac-(7S)-7-tert-butyl-N-[rac-(1R)-1-[3-(2-aminoethylcarbamoyl)phenyl]-3-(dimethyl-amino)propyl]-5,6,7,8-tetrahydrothiazolo[5,4-b] quinoline-2-carboxamide] | 6.46
CC(C)(C)[C@H]1CCc2nc3sc(C(=O)N[C@H](CCN4CCC(O)CC4)c4ccc(-c5cnsn5)cc4)nc3cc2C1 (racemic) [Example 183, rac-(7S)-7-tert-butyl-N-[rac-(1R)-3-(4-hydroxy-1-piperidyl)-1-[4-(1,2,5-thiadiazol-3-yl)phenyl]propyl]-5,6,7,8-tetrahydrothiazolo[5,4-b]quinoline-2-carboxamide] | 5.78
CC1(O)CN(CC[C@@H](NC(=O)c2cc3cc4c(nc3s2)CC[C@H](C(C)(C)C)C4)c2cccc(NS(C)(=O)=O)c2)C1 (racemic) [Example 16, ammonium; methylsulfonyl-[3-[rac-(1R)-3-(3-hydroxy-3-methyl-azetidin-1-yl)-1-[[rac-(6S)-6-tert-butyl-5,6,7,8-tetrahydrothieno[2,3-b]quinoline-2-carbonyl]amino]propyl]phenyl] azanide] | 5.95
CC(C)(C)[C@H]1CCc2nc3sc(C(=O)N[C@H](CCN4CCC(O)CC4)c4ccc(Oc5ccc(O)cc5)nc4)nc3cc2C1 (racemic) [Example 194, ammonium; 4-[[5-[rac-(1R)-3-(4-hydroxy-1-piperidyl)-1-[[rac-(7S)-7-tert-butyl-5,6,7,8-tetrahydrothiazolo[5,4-b]quinoline-2-carbonyl]amino]propyl]-2-pyridyl]oxy]phenolate] | 5.82
CN(C)S(=O)(=O)Nc1ccc([C@@H](CCN2CCC(O)CC2)NC(=O)c2nc3cc4c(nc3s2)CC[C@H](C(C)(C)C)C4)cc1F [Example 226, (S)-7-(tert-butyl)-N-((R)-1-(4-((N,N-dimethylsulfamoyl)amino)-3-fluorophenyl)-3-(4-hydroxypiperidin-1-yl)propyl)-5,6,7,8-tetrahydrothiazolo[5,4-b]quinoline-2-carboxamide] | 6.17
CC1([C@H]2CCc3nc4sc(C(=O)N[C@H](CCN5CCC(O)CC5)c5ccc(-c6cn[nH]c6)cc5)nc4cc3C2)CC1 [Example 267, (S)-N-((R)-1-(4-(1H-pyrazol-4-yl)phenyl)-3-(4-hydroxypiperidin-1-yl)propyl)-7-(1-methylcyclopropyl)-5,6,7,8-tetrahydrothiazolo[5,4-b]quinoline-2-carboxamide] | 6.18
CC(C)(C)[C@H]1CCc2nc3sc(C(=O)N[C@H](CCN4CCC(CO)CC4)c4ccccc4)cc3cc2C1 [Example 255, (6S)-6-tert-butyl-N-{(1R)-3-[4-(hydroxymethyl)piperidin-1-yl]-1-phenylpropyl}-5,6,7,8-tetrahydrothieno[2,3-b]quinoline-2-carboxamide] | 5.53
CC(C)(C)[C@H]1CCc2nc3sc(C(=O)N[C@H](CCN4CCCC(c5cccnc5)C4)c4cccc(NS(C)(=O)=O)c4)cc3cc2C1 (mixture of isomers) [Example 18, ammonium; methylsulfonyl-[3-[rac-(1R)-3-[3-(3-pyridyl)-1-piperidyl]-1-[rac-(6S)-6-tert-butyl-5,6,7,8-tetrahydrothieno[2,3-b]quinoline-2-carbonyl]amino]propyl]phenyl]azanide] | 5.89
CC(C)(C)[C@H]1CCc2nc3sc(C(=O)N[C@H](CCN4CCC(n5ccnc5)CC4)c4cccc(NS(C)(=O)=O)c4)cc3cc2C1 (racemic) [Example 17, ammonium; methylsulfonyl-[3-[rac-(1R)-3-(4-imidazol-1-y1-1-piperidy1)-1-[[rac-(6S)-6-tert-butyl-5,6,7,8-tetrahydrothieno[2,3-b]quinoline-2-carbonyl]amino]propyl]phenyl]azanide] | 5.90

— patent US12440496B2, “Natriuretic peptide receptor a agonists useful for the treatment of cardiometabolic diseases, kidney disease and diabetes” (Merck Sharp & Dohme LLC, priority 2019, dated 2025)
